# In patent US20150050220A1, “ANTIMICROBIAL COMPOSITION” (Rohm and Haas Company, priority 2011, published 2015):
# What was measured:
# Format in all cases: cell-based
# [1] = system: Escherichia coli (10536 strain); test: Assessment of antimicrobial efficacy and synergy: 15 seconds contact suspension kill test (Example 1); settings: for MBC (minimum biocidal concentration): lowest concentration giving complete kill of E. coli, 15 seconds contact, component alone
# [2] = system: Escherichia coli (E. coli - ATCC #10536); test: Automated assessment of efficacy in surfactant base, OD readout after 15 seconds exposure (Example 3)
# Description: In these examples, the efficacy of combinations of thymol and p-menthene alcohols were tested in a surfactant cleansing formulation comprising 2.85% sodium cocoyl glycinate and 1.85% sodium lauroamphoacetate. This corresponds to a 50% in use dilution with water of a typical neat formulation containing 5.7% cocoyl glycinate and 3.7% % sodium lauroamphoacetate during hand washing. Solutions were prepared such that the concentrations of the surfactant components and test actives were 1.1 times the final desired concentration in order to allow for dilution with the bacterial inoculum in the test. The solutions were manually adjusted to pH 10.0 by dropwise addition of sodium hydroxide solution, as measured with a pH meter at ambient temperature. […]
# The efficacy of the combinations of the present invention was determined against the same bacterium as in Example 1, Escherichia coli (E. coli—ATCC #10536), at a concentration of approximately 1×10^8 bacteria per mL.
# Tests were conducted using standard microtiter plate assays using an automated liquid handling system. […] After 5 minutes in the DIE quench, the optical density (OD) was measured for each plate in turn at two specific wavelengths (450 nm and 590 nm). […] Delta OD values were calculated by subtracting […] at time=16 hours. […]
# [3] = system: Escherichia coli (E. coli - ATCC #10536); test: High resolution MBC microtiter plate synergy assay in phosphate buffer containing 35% dipropylene glycol (Example 2); settings: for MBC of component alone (MBCA, MBCB): complete kill in 15 seconds, phosphate buffer with 35% DPG, E. coli 10536; for ΣFBC: component alone
# Description: The materials were sourced in the same way as for Example 1. Synergy tests were conducted using standard microtiter plate assays with phosphate buffer containing 35% dipropylene glycol (DPG). […] The MBC plate was inoculated one column at a time with the test microorganism. An aliquot of the inoculated well was transferred at 15 seconds to a plate containing a neutralizing agent (D/E Neutralizing Broth), mixed and held for 5 minutes before being transferred to a growth plate containing trypticase soy broth (TSB). The TSB plate was incubated at 37° C. and read for the presence/absence of growth at 24 hours. […] This microorganism is representative of natural contaminants in many consumer and industrial applications.
compound,measurement,setting,value
"CC1=CCC(C(C)CO)CC1 (stereo not drawn) [2-(4-methylcyclohex-3-enyl)-propan-1-ol, 2-(4-methylcyclohex-3-enyl)propan-1-ol]",MBC (minimum biocidal concentration),[1],0.15 % w/v
same,MBC of p-menthene alcohol,"[1]; value used to calculate FBC, for piperitols a lower boundary",0.15 % (w/v)
same,15 second bactericidal efficacy in combination with thymol (in words),"[2]; in combination with thymol at concentrations lower than their MBC, same surfactant formulation, all 4 or 6 replicates",complete kill
same,"MBC of component alone (MBCA, MBCB)",[3],0.3 weight %
same,ΣFBC,[3],1.00
same,Cb (end-point of second component in the mixture),"[3]; with Ca 0.08 of thymol, ratio A to B 1 to 2.5",0.2 weight %
same,Cb (end-point of second component in the mixture),"[3]; with Ca 0.2 of thymol, ratio A to B 1 to 0.13",0.025 weight %
same,Cb (end-point of second component in the mixture),"[3]; with Ca 0.2 of thymol, ratio A to B 1 to 0.25",0.05 weight %
same,Cb (end-point of second component in the mixture),"[3]; with Ca 0.2 of thymol, ratio A to B 1 to 0.38",0.075 weight %
same,Cb (end-point of second component in the mixture),"[3]; with Ca 0.2 of thymol, ratio A to B 1 to 0.5",0.1 weight %
"CC1=CCC(C(C)(C)O)CC1 (stereo not drawn) [alpha-terpineol, reference compound]",MBC (minimum biocidal concentration),[1],0.4 % w/v
"Cc1ccc(C(C)C)c(O)c1 [thymol, 2-isopropyl-5-methylphenol, reference compound]",thymol concentration required for complete bacterial kill in combination,"[1]; in combination with […](w/v) of 2-(4-methylcyclohex-3-enyl)-propan-1-ol, 4-fold reduction",0.0125%
same,MBC of thymol,[1]; value used to calculate FBC,0.025 % (w/v)
same,MBC (minimum biocidal concentration),[2]; in 2.85% sodium cocoyl glycinate + 1.85% sodium lauroamphoacetate solution at pH 10,>0.2 % w/v
same,"MBC of component alone (MBCA, MBCB)",[3],0.3 weight %
same,ΣFBC,[3],1.00
same,Ca (end-point of thymol in the mixture),"[3]; with Cb 0.025 of 2-(4-methylcyclohex-3-enyl)-propan-1-ol, ratio A to B 1 to 0.13",0.2 weight %
same,Ca (end-point of thymol in the mixture),"[3]; with Cb 0.05, ratio A to B 1 to 0.25",0.2 weight %
same,Ca (end-point of thymol in the mixture),"[3]; with Cb 0.075, ratio A to B 1 to 0.38",0.2 weight %
same,Ca (end-point of thymol in the mixture),"[3]; with Cb 0.1, ratio A to B 1 to 0.5",0.2 weight %
same,Ca (end-point of thymol in the mixture),"[3]; with Cb 0.2, ratio A to B 1 to 2.5",0.08 weight %
